Laboratory results reported in article PMC11619344 (Antimicrobial Agents and Chemotherapy, 2024).
≈ marks a conversion by molar mass, not a printed value.

Key:
Format in all cases: cell-based
[1] = tested on: K. pneumoniae ST512/KPC-31 (KPC-3 D179Y) parental clinical isolate; assay: MIC, broth microdilution; details: Klebsiella pneumoniae
[2] = tested on: ST258/KPC-35 mutant IMI 2.1; assay: MIC, broth microdilution; details: Klebsiella pneumoniae
[3] = tested on: ST258/KPC-35 mutant IMI 2.2; assay: MIC, broth microdilution; details: Klebsiella pneumoniae
[4] = tested on: ST258/KPC-35 mutant IMI 1.2; assay: MIC, broth microdilution; details: Klebsiella pneumoniae
[5] = tested on: ST512/KPC-31 mutant IMI 2.1; assay: MIC, broth microdilution; details: Klebsiella pneumoniae
[6] = tested on: ST258/KPC-35 mutant IMI 1.1; assay: MIC, broth microdilution; details: Klebsiella pneumoniae
[7] = tested on: ST512/KPC-31 mutant IMI 1.1; assay: MIC, broth microdilution; details: Klebsiella pneumoniae
[8] = tested on: ST512/KPC-31 mutant IMI 3.1; assay: MIC, broth microdilution; details: Klebsiella pneumoniae
[9] = tested on: ST512/KPC-31 mutant IMI 2.2; assay: MIC, broth microdilution; details: Klebsiella pneumoniae
[10] = tested on: ST258/KPC-35 mutant IMI 3.2; assay: MIC, broth microdilution; details: Klebsiella pneumoniae
[11] = tested on: ST258/KPC-35 mutant IMI 3.1; assay: MIC, broth microdilution; details: Klebsiella pneumoniae
[12] = tested on: ST512/KPC-31 mutant IMI 3.2; assay: MIC, broth microdilution; details: Klebsiella pneumoniae
[13] = tested on: K. pneumoniae ST258/KPC-35 (KPC-2 L169P) parental clinical isolate; assay: MIC, broth microdilution; details: Klebsiella pneumoniae
[14] = tested on: ST512/KPC-31 mutant IMI 1.2; assay: MIC, broth microdilution; details: Klebsiella pneumoniae
[15] = tested on: E. coli HB4 KPC-3; assay: MIC of recombinant strains; details: Escherichia coli, HB4KPC3; E. coli HB4 expressing KPC-3 in pUCP24
Experimental: (§1) 14.0 (www.eucast.org/clinical_breakpoints).
(§2) Recombinant strains were selected in 10 mg/L of gentamicin-LB agar plates. The β-lactam MICs were determined for the transformants according to the above-described methodology.

[16] = tested on: E. coli HB4 KPC-2 L169T; assay: MIC of recombinant strains; details: Escherichia coli, HB4KPC2L169T; E. coli HB4 expressing KPC-2 L169T in pUCP24
Experimental: as §1, §2

[17] = tested on: E. coli HB4 KPC-3 D179N; assay: MIC of recombinant strains; details: Escherichia coli, HB4KPC3D179N; E. coli HB4 expressing KPC-3 D179N in pUCP24
Experimental: as §1, §2

[18] = tested on: E. coli HB4 KPC-35 (KPC-2 L169P); assay: MIC of recombinant strains; details: Escherichia coli; E. coli HB4 expressing KPC-35 (KPC-2 L169P) in pUCP24
Experimental: as §1, §2

[19] = tested on: E. coli HB4 KPC-2 L169A; assay: MIC of recombinant strains; details: Escherichia coli, HB4KPC2L169A; E. coli HB4 expressing KPC-2 L169A in pUCP24
Experimental: as §1, §2

[20] = tested on: E. coli HB4; assay: MIC of recombinant strains; details: Escherichia coli; E. coli HB4 (OmpC- and OmpF-deficient), no KPC
Experimental: as §1, §2

[21] = tested on: E. coli HB4 KPC-2; assay: MIC of recombinant strains; details: Escherichia coli, HB4KPC2; E. coli HB4 expressing KPC-2 in pUCP24
Experimental: as §1, §2

[22] = tested on: E. coli HB4 KPC-31 (KPC-3 D179Y); assay: MIC of recombinant strains; details: Escherichia coli; E. coli HB4 expressing KPC-31 (KPC-3 D179Y) in pUCP24
Experimental: as §1, §2

Structure (SMILES)	MIC [1]	MIC [2]	MIC [3]	MIC [4]	MIC [5]	MIC [6]	MIC [7]	MIC [8]	MIC [9]	MIC [10]	MIC [11]	MIC [12]	MIC [13]	MIC [14]	MIC [15]	MIC [16]	MIC [17]	MIC [18]	MIC [19]	MIC [20]	also measured
NCC[C@H](O)C(=O)N[C@@H]1C[C@H](N)[C@@H](O[C@H]2O[C@H](CN)[C@@H](O)[C@H](O)[C@H]2O)[C@H](O)[C@H]1O[C@H]1O[C@H](CO)[C@@H](O)[C@H](N)[C@H]1O [AMI, amikacin]	> 32 µg/mL	> 32 µg/mL	> 32 µg/mL	> 32 µg/mL	> 32 µg/mL	> 32 µg/mL	> 32 µg/mL	> 32 µg/mL	> 32 µg/mL	> 32 µg/mL	> 32 µg/mL	> 32 µg/mL	> 32 µg/mL	> 32 µg/mL							
C[C@H]1[C@H](NC(=O)/C(=N\OC(C)(C)C(=O)O)c2csc(N)n2)C(=O)N1S(=O)(=O)O [AZT, aztreonam]		> 16 µg/mL	> 16 µg/mL	> 16 µg/mL	> 16 µg/mL	> 16 µg/mL	> 16 µg/mL	> 16 µg/mL	> 16 µg/mL	> 16 µg/mL	> 16 µg/mL	> 16 µg/mL		> 16 µg/mL	256 µg/mL	128 µg/mL	8 µg/mL	16 µg/mL	64 µg/mL	≤ 0.5 µg/mL	MIC [21]: 512 µg/mL; MIC [22]: 4 µg/mL
CC(C)(O/N=C(\C(=O)N[C@@H]1C(=O)N2C(C(=O)[O-])=C(C[n+]3ccccc3)CS[C@H]12)c1csc(N)n1)C(=O)O [CAZ, ceftazidime]	> 256 µg/mL	128 µg/mL (≈ 234 µM)	128 µg/mL (≈ 234 µM)	256 µg/mL (≈ 468 µM)	> 256 µg/mL	256 µg/mL (≈ 468 µM)	> 256 µg/mL	> 256 µg/mL	> 256 µg/mL	128 µg/mL (≈ 234 µM)	64 µg/mL (≈ 117 µM)	> 256 µg/mL	> 256 µg/mL	> 256 µg/mL	> 64 µg/mL	> 64 µg/mL	> 64 µg/mL	> 64 µg/mL	> 64 µg/mL	1 µg/mL	MIC [21]: > 64 µg/mL; MIC [22]: > 64 µg/mL
C[C@@H](O)[C@H]1C(=O)N2C(C(=O)O)=C(S[C@@H]3CN[C@H](C(=O)Nc4cccc(C(=O)O)c4)C3)[C@H](C)[C@H]12 [ETP, ertapenem]	> 8 µg/mL	> 8 µg/mL	> 8 µg/mL	> 8 µg/mL	> 8 µg/mL	> 8 µg/mL	> 8 µg/mL	> 8 µg/mL	> 8 µg/mL	> 8 µg/mL	> 8 µg/mL	> 8 µg/mL	> 8 µg/mL	> 8 µg/mL							
CO/N=C(\C(=O)N[C@@H]1C(=O)N2C(C(=O)[O-])=C(C[N+]3(C)CCCC3)CS[C@H]12)c1csc(N)n1 [FEP, cefepime]		> 16 µg/mL	> 16 µg/mL	> 16 µg/mL	> 16 µg/mL	> 16 µg/mL	> 16 µg/mL	> 16 µg/mL	> 16 µg/mL	> 16 µg/mL	> 16 µg/mL	> 16 µg/mL		> 16 µg/mL	128 µg/mL	128 µg/mL	16 µg/mL	64 µg/mL	64 µg/mL	≤ 0.5 µg/mL	MIC [21]: 256 µg/mL; MIC [22]: 32 µg/mL
CNC(C)C1CCC(N)C(OC2C(N)CC(N)C(OC3OCC(C)(O)C(NC)C3O)C2O)O1 (stereo not shown) [GEN, gentamicin]	4 µg/mL (≈ 8.38 µM)	4 µg/mL (≈ 8.38 µM)	4 µg/mL (≈ 8.38 µM)	4 µg/mL (≈ 8.38 µM)	4 µg/mL (≈ 8.38 µM)	4 µg/mL (≈ 8.38 µM)	4 µg/mL (≈ 8.38 µM)	4 µg/mL (≈ 8.38 µM)	8 µg/mL (≈ 16.8 µM)	4 µg/mL (≈ 8.38 µM)	4 µg/mL (≈ 8.38 µM)	4 µg/mL (≈ 8.38 µM)	≤ 2 µg/mL	8 µg/mL (≈ 16.8 µM)							
C[C@H]1COc2c(N3CCN(C)CC3)c(F)cc3c(=O)c(C(=O)O)cn1c23 [LEV, levofloxacin]	> 8 µg/mL	> 8 µg/mL	> 8 µg/mL	> 8 µg/mL	> 8 µg/mL	> 8 µg/mL	> 8 µg/mL	> 8 µg/mL	> 8 µg/mL	> 8 µg/mL	> 8 µg/mL	> 8 µg/mL	> 8 µg/mL	> 8 µg/mL							
C[C@@H](O)[C@H]1C(=O)N2C(C(=O)O)=C(S[C@@H]3CN[C@H](C(=O)N(C)C)C3)[C@H](C)[C@H]12 [MEM, meropenem]	4 µg/mL (≈ 10.4 µM)	> 64 µg/mL	> 64 µg/mL	> 64 µg/mL	> 64 µg/mL	> 64 µg/mL	> 64 µg/mL	32 µg/mL (≈ 83.4 µM)	> 64 µg/mL	64 µg/mL (≈ 167 µM)	64 µg/mL (≈ 167 µM)	32 µg/mL (≈ 83.4 µM)	4 µg/mL (≈ 10.4 µM)	> 64 µg/mL	> 64 µg/mL	16 µg/mL	0.25 µg/mL	2 µg/mL	16 µg/mL	≤ 0.06 µg/mL	MIC [21]: > 64 µg/mL; MIC [22]: 0.5 µg/mL
NC[C@H]1O[C@H](O[C@H]2[C@H](O)[C@@H](O[C@H]3O[C@H](CO)[C@@H](O)[C@H](N)[C@H]3O)[C@H](N)C[C@@H]2N)[C@H](N)C[C@@H]1O [TOB, tobramycin]	> 8 µg/mL	> 8 µg/mL	> 8 µg/mL	> 8 µg/mL	> 8 µg/mL	> 8 µg/mL	> 8 µg/mL	> 8 µg/mL	> 8 µg/mL	> 8 µg/mL	> 8 µg/mL	> 8 µg/mL	> 8 µg/mL	> 8 µg/mL							
